In the supplement of paper PMC11451515:

Legend:
Experiment in all cases: AUC of viability dose-response curve (% viability x log10 dose units); higher = less sensitive
Conditions in all cases: 48 h
P12-Ichikawa = tested on: P12-Ichikawa
Procedure, shortened: (§1)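 Leukemia cells adapted to each medium were seeded in 1536-well plates (500 or 1000 cells/well). They were dosed with library compounds in DMSO at 11 threefold doses, 47 μM to 0.79 nM, for 48 h at 37°C. CellTiter-Glo One luminescence was normalised per plate to DMSO and cell-free wells. Area under the curve was integrated by trapezoidal rule over log10 doses on a four-parameter log-logistic fit; curves exceeding full viability were scaled and curves failing quality control removed.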

NOMO1 = tested on: NOMO1
Procedure, shortened: as §1

SEM cells = tested on: SEM cells
Procedure, shortened: as §1

[1] = RPMI 5 mM glucose + 10% dialyzed FBS

Row | SMILES | AUC of viability dose-response curve (P12-Ichikawa; HPLM + 10% dialyzed FBS) | AUC of viability dose-response curve (P12-Ichikawa; RPMI 5 mM glucose + 10% FBS) | AUC of viability dose-response curve (P12-Ichikawa; [1]) | AUC of viability dose-response curve (NOMO1; HPLM + 10% dialyzed FBS) | AUC of viability dose-response curve (NOMO1; RPMI 5 mM glucose + 10% FBS) | AUC of viability dose-response curve (NOMO1; [1]) | AUC of viability dose-response curve (SEM cells; HPLM + 10% dialyzed FBS) | AUC of viability dose-response curve (SEM cells; RPMI 5 mM glucose + 10% FBS) | AUC of viability dose-response curve (SEM cells; [1])
1 | CC(C)(C)[C@]1(O)C[C@@H]2OC(=O)C[C@@]23C(=O)O[C@@H]2OC(=O)[C@H](O)C213 (stereo partly specified) | 447 | 458 | 452 | 452 | 436 | 452 | 471 | 444 | 436
2 | Nc1cc(N2CCCCC2)nc(N)[n+]1[O-] | 469 | 468 | 475 | 451 | 461 | 465 | 451 | 451 | 455
3 | Cc1n[nH]c2ccc(-c3cncc(OC[C@@H](N)Cc4ccccc4)c3)cc12 | 371 | 335 | 355 | 324 | 365 | 348 | 312 | 341 | 347
4 | CC(C)[C@H](C(=O)Nc1ccc(C(=O)NO)cc1)c1ccccc1 | 351 | 346 | 350 | 361 | 368 | 364 | 340 | 346 | 342
